Patent US10316017B2, “COT modulators and methods of use thereof” (Gilead Sciences, Inc., priority 2015, dated 2019)

Key:
[1] = target: T1, human Cot catalytic domain (30-397 amino acids) (Homo sapiens, UniProt P41279); test: High Throughput Cot Biochemical Assay (KinEASE TR-FRET); settings: Cot KinEASE TR-FRET (HTRF) biochemical assay, 400 μM ATP; read-out: IC50 HTRF
T1 construct: Purified recombinant human Cot catalytic domain (30-397 amino acids) was purchased from Cama Biosciences; purchased Cama Biosciences (so in the source)
T1 sequence (P41279 30-397): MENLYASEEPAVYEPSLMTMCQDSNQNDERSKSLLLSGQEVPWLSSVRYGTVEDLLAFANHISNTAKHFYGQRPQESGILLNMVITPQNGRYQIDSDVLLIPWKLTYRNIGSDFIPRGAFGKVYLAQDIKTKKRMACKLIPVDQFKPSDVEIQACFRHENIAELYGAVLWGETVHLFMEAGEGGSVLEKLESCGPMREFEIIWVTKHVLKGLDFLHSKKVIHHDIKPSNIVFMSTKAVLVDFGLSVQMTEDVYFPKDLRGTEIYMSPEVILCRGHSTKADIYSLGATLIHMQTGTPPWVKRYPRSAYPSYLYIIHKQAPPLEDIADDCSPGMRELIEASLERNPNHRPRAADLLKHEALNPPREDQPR
In short: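 TR-FRET (KinEASE) read-out: Eu-labelled phospho-specific antibody binds XL665-tagged STK3 peptide (1 μM) phosphorylated by 5 nM human Cot kinase domain (residues 30-397). Reaction at 400 μM ATP, pH 7.0 MOPS buffer with 10 mM MgOAc, 1 mM DTT and 0.1% DMSO.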

[2] = test system: TNFα production in LPS-stimulated human monocytes; test: Cot Monocyte TNFα Cell Based Assay; settings: Homo sapiens, Monocyte, TNFα in LPS-stimulated human monocytes; read-out: EC50 TNF
In short: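 TNFα release quantified by two-antibody TR-FRET, normalised to unstimulated (0%) and LPS-stimulated (100%) wells. Cells got a 1 h compound exposure at 37° C in 0.5% DMSO before 4 h challenge with 50 pg/ml LPS, at 5,000 cells/well.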

IC50 [1] [nM] | EC50 [2] [nM] | SMILES
48 | 1260 | Cc1cc(Nc2c(C#N)cnc3c(Cl)cc(N[C@@H](c4ccc(F)cc4)c4c[nH]nn4)cc23)cnc1F [Example 375, (S)-8-chloro-4-((6-fluoro-5-methylpyridin-3-yl)amino)-6-(((4-fluorophenyl)(1H-1,2,3-triazol-4-yl)methyl)amino) quinoline-3-carbonitrile]
495 | > 10000 | N#Cc1cnc2c(Cl)cc(N[C@@H](c3ccc(F)cc3)c3cn(C(F)F)nn3)cc2c1Nc1cnc(F)c(F)c1 [Example 377, (S)-8-chloro-6-(((1-(difluoromethyl)-1H-1,2,3-triazol-4-yl)(4-fluorophenyl)methyl)amino)-4-((5,6-difluoropyridin-3-yl)amino)quinoline-3-carbonitrile]
> 10000 | > 10000 | N#Cc1cnc2c(Cl)cc(N[C@@H](c3ccc(F)cc3)c3cnn(C(F)F)n3)cc2c1Nc1cnc(F)c(F)c1 [Example 378, (S)-8-chloro-6-(((2-(difluoromethyl)-2H-1,2,3-triazol-4-yl)(4-fluorophenyl)methyl)amino)-4-((5,6-difluoropyridin-3-yl)amino)quinoline-3-carbonitrile]
30 | 191 | CC[C@@H](Nc1c(C#N)cnc2c(Cl)cc(N[C@@H](c3ccc(F)cc3)c3cn(C4(C(F)(F)F)CC4)nn3)cc12)c1ccccc1 [Example 379, 8-chloro-6-(((S)-(4-fluorophenyl)(1-(1-(trifluoromethyl)cyclopropyl)-1H-1,2,3-triazo1-4-yl)methyl)amino)-4-(((R)-1-phenylpropyl)amino)quinoline-3-carbonitrile]
44 | 644 | [2H][C@](Nc1cc(Cl)c2ncc(C#N)c(Nc3cnc(F)c(F)c3)c2c1)(c1ccc(F)cc1)c1cn(C(C)(C)C)nn1 [Example 381, (S)-6-(((1-(tert-butyl)-1H-1,2,3-triazol-4-yl)(4-fluorophenyl)methyl-d)amino)-8-chloro-4-((5,6-difluoropyridin-3-yl)amino)quinoline-3-carbonitrile]
8 | 323 | [2H][C@](Nc1cc(Cl)c2ncc(C#N)c(Nc3cnc(F)c(F)c3)c2c1)(c1ccc(F)cc1)c1cn(C2CC2)nn1 [Example 382, (S)-8-chloro-6-(((1-cyclopropyl-1H-1,2,3-triazol-4-yl)(4-fluorophenyl)methyl-d)amino)-4-((5,6-difluoropyridin-3-yl)amino)quinoline-3-carbonitrile]
5 | 1440 | Cn1ccnc1-c1cccc([C@H](Nc2cc(Cl)c3ncc(C#N)c(Nc4cnc(F)c(F)c4)c3c2)c2c[nH]nn2)c1 [Example 386, (S)-8-chloro-4-((5,6-difluoropyridin-3-yl)amino)-6-(((3-(1-methyl-1H-imidazol-2-yl)phenyl)(1H-1,2,3-triazol-4-yl)methyl)amino)quinoline-3-carbonitrile]
50 | 809 | [2H][C@](Nc1cc(Cl)c2ncc(C#N)c(Nc3cnc(F)c(F)c3)c2c1)(c1ccc(Cl)cc1)c1c[nH]nn1 [Example 387, (S)-8-chloro-6-(((4-chlorophenyl)(1H-1,2,3-triazol-4-yl)methyl-d)amino)-4-((5,6-difluoropyridin-3-yl)amino)quinoline-3-carbonitrile]
37 | 817 | N#Cc1cnc2c(Cl)cc(N[C@@H](c3ccc(F)cc3)c3cn(-c4cccnc4)nn3)cc2c1Nc1cnc(F)c(F)c1 [Example 389, (S)-8-chloro-4-((5,6-difluoropyridin-3-yl)amino)-6-(((4-fluorophenyl) (1-(pyridin-3-yl)-1H-1,2,3-triazol-4-yl)methyl)amino)quinoline-3-carbonitrile]

The next lines start with the molecule.

SMILES | IC50 [1] [nM] | EC50 [2] [nM]
N#Cc1cc([C@H](Nc2cc(Cl)c3ncc(C#N)c(Nc4cnc(F)c(F)c4)c3c2)c2c[nH]nn2)ccc1F [Example 372, (S)-8-chloro-6-(((3-cyano-4-fluorophenyl)(1H-1,2,3-triazol-4-yl)methyl)amino)-4-((5,6-difluoropyridin-3-yl)amino)quinoline-3-carbonitrile] | 11 | 771
N#Cc1cnc2c(Cl)cc(N[C@@H](c3ccc(F)cc3)c3c[nH]nn3)cc2c1Nc1cccnc1F [Example 373, (S)-8-chloro-6-(((4-fluorophenyl)(1H-1,2,3-triazol-4-yl)methyl)amino)-4-((2-fluoropyridin-3-yl)amino)quinoline-3-carbonitrile] | 3010 | 7520
N#Cc1cnc2c(Cl)cc(N[C@@H](c3ccc(F)cc3)c3c[nH]nn3)cc2c1Nc1ccc(F)nc1 [Example 374, (S)-8-chloro-6-(((4-fluorophenyl)(1H-1,2,3-triazol-4-yl)methyl)amino)-4-((6-fluoropyridin-3-yl)amino)quinoline-3-carbonitrile] | 161 | 3840
N#Cc1cnc2c(Cl)cc(N[C@H](c3c[nH]nn3)c3ccccc3Cl)cc2c1Nc1cnc(F)c(F)c1 [Example 376, (S)-8-chloro-6-(((2-chlorophenyl)(1H-1,2,3-triazol-4-yl)methyl)amino)-4-((5,6-difluoropyridin-3-yl)amino)quinoline-3-carbonitrile] | 47 | 1610
N#Cc1cnc2c(Cl)cc(N[C@@H](c3ccc(F)cc3)c3cn(C4CCOCC4)nn3)cc2c1Nc1cnc(F)c(F)c1 [Example 380, (S)-8-chloro-4-((5,6-difluoropyridin-3-yl)amino)-6-(((4-fluorophenyl) (1-(tetrahydro-2H-pyran-4-yl)-1H-1,2,3-triazol-4-yl)methyl)amino)quinoline-3-carbonitrile] | 78 | 1280
CC(C)n1cc([C@@H](Nc2cc(Cl)c3ncc(C#N)c(Nc4ccc(F)c(Cl)c4)c3c2)c2cccc(S(=O)(=O)N(C)C)c2)nn1 [Example 383, (S)-3-(((8-chloro-4-((3-chloro-4-fluorophenyl)amino)-3-cyanoquinolin-6-yl)amino)(1-isopropyl-1H-1,2,3-triazol-4-yl)methyl)-N,N-dimethylbenzenesulfonamide] | 11 | 148
N#Cc1cnc2c(Cl)cc(N[C@@H](c3ccc(F)cc3)c3cn(CC4(O)CC4)nn3)cc2c1Nc1cnc(F)c(F)c1 [Example 384, (S)-8-chloro-4-((5,6-difluoropyridin-3-yl)amino)-6-(((4-fluorophenyl)(1-((1-hydroxycyclopropyl)methyl)-1H-1,2,3-triazol-4-yl)methyl)amino)quinoline-3-carbonitrile] | 8 | 832
CC(C)n1cc([C@@H](Nc2cc(Cl)c3ncc(C#N)c(Nc4cnc(F)c(F)c4)c3c2)c2cccc(-c3nccn3C)c2)nn1 [Example 385, (S)-8-chloro-4-((5,6-difluoropyridin-3-yl)amino)-6-(((1-isopropyl-1H-1,2,3-triazol-4-yl)(3-(1-methyl-1H-imidazol-2-yl)phenyl)methyl)amino) quinoline-3-carbonitrile] | 4 | 692
N#Cc1cnc2c(Cl)cc(N[C@@H](c3ccc(F)cc3)c3cn(-c4ccncc4)nn3)cc2c1Nc1cnc(F)c(F)c1 [Example 388, (S)-8-chloro-4-((5,6-difluoropyridin-3-yl)amino)-6-(((4-fluorophenyl)(1-(pyridin-4-yl)-1H-1,2,3-triazol-4-yl)methyl)amino)quinoline-3-carbonitrile] | 83 | 1260
CC[C@@H](Nc1c(C#N)cnc2c(Cl)cc(N[C@@H](c3ccc(F)cc3)c3cn(-c4ccncc4)nn3)cc12)c1ccccc1 [Example 390, 8-chloro-6-(((S)-(4-fluorophenyl)(1-(pyridin-4-yl)-1H-1,2,3-triazol-4-yl)methyl)amino)-4-(((R)-1-phenylpropyl)amino)quinoline-3-carbonitrile] | 30 | 318
CC[C@@H](Nc1c(C#N)cnc2c(Cl)cc(N[C@@H](c3ccc(F)cc3)c3cn(-c4cccnc4)nn3)cc12)c1ccccc1 [Example 391, 8-chloro-6-(((S)-(4-fluorophenyl)(1-(pyridin-3-yl)-1H-1,2,3-triazol-4-yl)methyl)amino)-4-(((R)-1-phenylpropyl)amino)quinoline-3-carbonitrile] | 17 | 214
CC(C)(C)CNc1c(C#N)cnc2c(Cl)cc(N[C@@H](c3ccc(F)cc3)c3cn(-c4ccncc4)nn3)cc12 [Example 393, (S)-8-chloro-6-(((4-fluorophenyl)(1-(pyridin-4-yl)-1H-1,2,3-triazol-4-yl)methyl)amino)-4-(neopentylamino)quinoline-3-carbonitrile] | 179 | 333
CC(C)(C)CNc1c(C#N)cnc2c(Cl)cc(N[C@@H](c3ccc(F)cc3)c3cn(-c4cccnc4)nn3)cc12 [Example 394, (S)-8-chloro-6-(((4-fluorophenyl)(1-(pyridin-3-yl)-1H-1,2,3-triazol-4-yl)methyl)amino)-4-(neopentylamino)quinoline-3-carbonitrile] | 36 | 160
CC(C)(C)CNc1c(C#N)cnc2c(Cl)cc(N[C@@H](c3ccc(F)cc3)c3cn(-c4ccccc4)nn3)cc12 [Example 395, (S)-8-chloro-6-(((4-fluorophenyl)(1-phenyl-1H-1,2,3-triazol-4-yl)methyl)amino)-4-(neopentylamino)quinoline-3-carbonitrile] | 47 | 273
